From US10221168B1, “Small-compound enhancers for functional O-mannosylation of alpha-dystroglycan, and uses thereof” (priority 2015, dated 2019)

System: FOG of α-DG on the cell surfaces
Assay: Cell-based HTS/HCS assay, IIH6 antibody as probe (EC1.5)
Settings: concentration of the compound required to enhance the FOG of α-DG by 50% over the controls; cell-based assays in vitro
Source text: (§1) Protein glycosylation is a multiple-step process that requires a large number of proteins in the secretory pathway of the cells. Thus we chose cell-based assay because our goal is to identify enhancer the FOG of α-DG on the cell surfaces. The assay system is HTS/HCS friendly and can adapt to various cell lines including myotubes as well as various readout methods including AlphaScreen, fluorescence density and HCS/fluorescence imaging. The standard operation protocol (SOP) for adhesion cells is described below and the FIG. 1 illustrates the assay process using myoblasts as the controls and screening cells and the IIH6 antibody as the probe. Other adhesion cells such CHO (Chinese hamster ovary) cell line can be implemented into this assay by simply removing the differentiation step.
Cell cultures: All cells are cultured at 37° C., 5% CO2, in appropriate media (F-12 for epithelial cells and DMEM for myoblasts) supplement with 10-20% fetal calf serum (FCS) and 1% antibiotics. […] The cells will be detached with trypsin EDTA and suspended in the cell culture media. The cells will be counted and seeded into the multiple-well plates as desired. Myotubes formation: When the myoblasts reach confluence, change the growth media to differential media (DEME with 2% horse serum) and incubate for 4-5 days.
The cells were fixed, permeablized, and then blocked with 10% BSA in PBS for 1 hour. […] After washing the cells with PBS for 2 times, the DAPI was used to stain the cells for 15 mins and wash 3 times with PBS. The images were captured with an inverted Olympus fluorescent microscope. For small compound localization experiment, the cells are incubated with the biotin conjugated compounds and then the cells were washed and incubated with streptavidin-Dye and then images will be captured to see the location of the compound-target-protein.
H, EC1.5<5 μM; M, EC1.5-20 μM; L, EC1.5 20-50 μM; VL, EC1.5>50 μM.

SMILES	Activity (EC1.5)
CCC(c1nnnn1Cc1cccs1)N1CCN(c2nc3cc(N)cc(F)c3s2)CC1 (stereo not drawn) [Compound 46, 5-amino-7-fluoro-2-(4-(1-(1-(thiophen-2-ylmethyl)-1H-tetrazol-5-yl)propyl)piperazin-1-yl)benzothiazole]	H (EC1.5<5 μM)
CCC(c1nnnn1CCc1cccs1)N1CCN(c2nc3cc(N)cc(F)c3s2)CC1[N+](=O)[O-] (stereo not drawn) [Compound 64, 5-amino-7-fluoro-2-(4-(1-(1-(thiophen-2-ylethyl)-1H-tetrazol-5-yl)propyl)-3-nitro-piperazin-1-yl)benzothiazole]	H (EC1.5<5 μM)
CCC(c1nnnn1CCc1cccs1)N1CCN(c2nc3cc(N)cc(F)c3s2)CC1[N+](=O)[O-] (stereo not drawn) [Compound 65, 5-amino-7-fluoro-2-(4-(1-(1-(thiophen-2-ylethyl)-1H-tetrazol-5-yl)propyl)-5-nitro-piperazin-1-yl)benzothiazole]	H (EC1.5<5 μM)
CCC(c1nnnn1CCc1cccs1)N1CCN(c2nc3cc(N)cc(F)c3s2)C(N)C1 (stereo not drawn) [Compound 66, 5-amino-7-fluoro-2-(4-(1-(1-(thiophen-2-ylethyl)-1H-tetrazol-5-yl)propyl)-2-amino-piperazin-1-yl)benzothiazole]	H (EC1.5<5 μM)
CCC(c1nnnn1CCc1cccs1)N1CCN(c2nc3cc(N)cc(F)c3s2)C([N+](=O)[O-])C1 (stereo not drawn) [Compound 67, 5-amino-7-fluoro-2-(4-(1-(1-(thiophen-2-ylethyl)-1H.tetrazol-5-yl)propyl)-2-nitro-piperazin-1-yl)benzothiazole]	H (EC1.5<5 μM)
CCC(c1nnnn1Cc1cccs1)C1CCCC(c2nc3cc(N)cc(F)c3s2)CC1 (stereo not drawn) [Compound 68, 5-amino-7-fluoro-2-(4-(1-(1-(thiophen-2-ylmethyl)-1H-tetrazol-5-yl)propyl)cycloheptyl)benzothiazole]	H (EC1.5<5 μM)
CCC(c1nnnn1Cc1cccs1)C1CCN(c2nc3cc(N)cc(F)c3s2)C1 (stereo not drawn) [Compound 69, 5-amino-7-fluoro-2-(4-(1-(1-(thiophen-2-ylmethyl)-1H-tetrazol-5-yl)propyl)pyrrolidine-1-yl)benzothiazole]	H (EC1.5<5 μM)
CCC(c1nnnn1Cc1cccs1)C1CCCN(c2nc3cc(N)cc(F)c3s2)CC1 (stereo not drawn) [Compound 70, 5 amino-7-fluoro-2-(4-(1-(1-(thiophen-2-ylmethyl)-1H-tetrazol-5-yl)propyl)azepane-1-yl)benzothiazole]	H (EC1.5<5 μM)
CCC(c1nnnn1Cc1cccs1)N1CCCN(c2nc3cc(N)cc(F)c3s2)CC1 (stereo not drawn) [Compound 71, 5-amino-7-fluoro-2-(4-(1-(1-(thiophen-2-ylmethyl)-1H-tetrazol-5-yl)propyl)1,4-diazepane-1-yl)benzothiazole]	H (EC1.5<5 μM)
CCC(c1nnnn1Cc1cccs1)N1CCCN(c2nc3cc(N)cc(F)c3s2)CCC1 (stereo not drawn) [Compound 72, 5-amino-7-fluoro-2-(5-(1-(1-(thiophen-2-ylmethyl)-1H-tetrazol-5-yl)propyl)1,5-diazocane-1-yl)benzothiazole]	H (EC1.5<5 μM)
CCC(c1nnnn1Cc1ccns1)N1CCN(c2nc3cc(N)cc(F)c3s2)CC1 (stereo not drawn) [Compound 73, 5-amino-7-fluoro-2-(4-(1-(1-(isothiazol-5-ylmethyl)-1H-tetrazol-5-yl)propyl)piperazin-1-yl)benzothiazole]	H (EC1.5<5 μM)
CCC(c1nnnn1CCc1ccns1)N1CCN(c2nc3cc(N)cc(F)c3s2)CC1 (stereo not drawn) [Compound 74, 5-amino-7-fluoro-2-(4-(1-(1-(isothiazol-5-ylethyl)-1H-tetrazol-5-yl)propyl)piperazin-1-yl)benzothiazole]	H (EC1.5<5 μM)
CCC(c1nnnn1CCc1cccs1)N1CCCN(c2nc3cc(N)cc(F)c3s2)CC1 (stereo not drawn) [Compound 75, 5-amino-7-fluoro-2-(4-(1-(1-(thiophen-2-ylethyl)-1H-tetrazol-5-yl)propyl)1,4-diazepane-1-yl)benzothiazole]	H (EC1.5<5 μM)
CCC(c1nnnn1CCc1cccs1)N1CCCN(c2nc3cc(N)cc(F)c3s2)CC1 (stereo not drawn) [Compound 76, 5-amino-7-fluoro-2-(4-(1-(1-(thiophen-2-ylethyl)-1H-tetrazol-5-yl)propyl)1,4-diazepane-1-yl)benzothiazole]	H (EC1.5<5 μM)

System: functional O-mannosylation of α-DG on cell surfaces (CHO, C2C12, HSMB, FKRPD cells)
Assay: Immuno-fluorescent staining with IIH6 antibody after compound treatment (FIG. 1)
Format: cell-based, Chinese hamster, mouse, human
Settings: FKRPD cells in 96 well-plates, series of concentrations, 48 hours
Description: The Chinese hamster ovary (CHO), mouse myoblasts (C2C12), normal human myoblasts (HSMB), human FKRP deficient myoblasts (FKRPD) were grown in 96 well-plates and treated with the compound at a series concentrations for 48 hours. The cells were examined with immuno-fluorescent staining using the IIH6 antibody that recognize the FOG of α-DG as the primary antibody followed by an appropriate secondary antibody conjugated with fluorophore. The detailed protocol is described in experiment section below.
as §1
The cells were fixed, permeablized, and then blocked with 10% BSA in PBS for 1 hour. […]

SMILES	enhancement of the functional O-mannosylation of α-DG on cell surfaces
CCC(c1nnnn1Cc1cccs1)N1CCN(c2nc3cc(N)cc(F)c3s2)CC1 (stereo not drawn) [Compound 46, 5-amino-7-fluoro-2-(4-(1-(1-(thiophen-2-ylmethyl)-1H-tetrazol-5-yl)propyl)piperazin-1-yl)benzothiazole]	dose-dependent enhancement
